Data on 20 compounds can be found in US11753411B2, “Substituted pyrazolo[1,5-a]pyrimidines as TYK2 pseudokinase ligands” (Ventyx Biosciences, Inc., priority 2019, dated 2023).

One data set can be described thus: Hepatocyte stability. The note with it: for half-life at 1 μM: human, Table 3 of Example 15: 1 μM test compound, 0.5 million cells/mL hepatocytes, 37° C. The class given is in vitro ADME, human. Here is the method:
Metabolic stability of compounds can be evaluated using human, rat, mouse, or other animal hepatocytes to predict intrinsic clearance. Human LiverPool™ 20-donor and animal cryopreserved hepatocytes were obtained from BioreclamationIVT.
Cryopreserved hepatocytes were removed from a liquid nitrogen tank and thawed in a 37° C. water bath. As soon as the cells pull away from the vial wall, they were decanted into 48 mL of warm HT medium. Cells were centrifuged for four minutes at 420 rpm (50 g). After removing the supernatant, the pellet was re-suspended in warm DMEM medium. Cell density was counted by a hemacytometer.
The assay was carried out in 96-well microtiter plates. Compound 5 was incubated for 0, 60, 120, and 180 minutes at 37° C. with hepatocytes. Reaction mixtures (50 μL) contain a final concentration of 1 μM test compound, 0.5 million cells/mL hepatocytes in the DMEM medium. At each of the time points (for example, 0, 1, 2, and 3 hours), 200 μL of quench solution (100% acetonitrile with 0.1% formic acid) with internal standard was transferred to each well. Midazolam was included as a positive control to verify assay performance. Plates were sealed and centrifuged at 4° C. for 15 minutes at 4000 rpm. The supernatant was transferred to fresh plates for LC/MS/MS analysis.
All samples were analyzed on LC/MS/MS using an AB Sciex API 4000 instrument, coupled to a Shimadzu LC-20AD LC Pump system. Analytical samples were separated using a Waters Atlantis T3 dC18 reverse phase HPLC column (20 mm×2.1 mm) at a flow rate of […]. The mobile phase consists of 0.1% formic acid in water (solvent A) and 0.1% formic acid in 100% acetonitrile (solvent B).
The extent of metabolism was calculated as the disappearance of the test compound, compared to the 0-min control reaction incubations. Initial rates are calculated for the compound concentration and used to determine t½ values and subsequently, the intrinsic clearance, CLint=(0.693)(1/t½ (min))(mL incubation/million cells).

Another data set concerns IFN-a/Jak1 Tyk2. As to the kind of experiment: Co-stimulation assay in lysed whole blood: IFNa (JAK1/TYK2) stimulated STAT1 phosphorylation. The class given is cell-based. The note with it: Homo sapiens, 20 min, 100 ng/mL IFNa (with 10 ng/mL GM-CSF), pSTAT by flow cytometry. The method in brief: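 Lysed human whole blood (RBC-lysed, resuspended in cRPMI) pre-incubated with compound 1 h at 37 °C, then stimulated 20 min with IFNa 100 ng/mL plus GM-CSF 10 ng/mL (final). Fixed, permeabilised, stained for pSTAT1 (PE) and pSTAT5 (AF488); flow cytometry read-out, ≥5,000–10,000 cells acquired.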

Data set [1] is described as follows: Human liver microsome stability assay. The class given is in vitro ADME. The note with it: 0.5 mg/mL human liver microsomes, 37° C., pH 7.4; urea versus corresponding amide. Here is the method:
The microsome stability assay was carried out in 96-well microtiter plates at 37° C. Reaction mixtures (25 μL) contained a final concentration of 1 µM test compound, 0.5 mg/mL human liver microsomes protein, and 1 mM NADPH and/or 1 mM UDPGA (with alamethicin) in 100 mM potassium phosphate, pH 7.4 buffer with 3 mM MgCl2. At each of the time points (for example, 0, 15, 30, and 60 minutes), 150 μL of quench solution (100% acetonitrile with 0.1% formic acid) with internal standard was transferred to each well. Besides the zero minute controls, mixtures containing the same components except the NADPH were also prepared as the negative control. Verapamil was included as a positive control to verify assay performance. Plates were sealed, vortexed, and centrifuged at 4° C. for 15 minutes at 4000 rpm. The supernatant was transferred to fresh plates for LC/MS/MS analysis. Comparison data for microsome stability of urea compounds described herein versus the corresponding amide compounds are shown in Table 1.

Data set [2] in a line: Rat pharmacokinetics (PK). The note with it: IV group and PO group, route of the Cmax not given, urea versus corresponding amide. The class given is in vivo. Here is the method:
Rat PK experiments were performed with an IV group and PO group included, with 3 rats per group. The formulation was solution for IV group and either solution or suspension formulation for the oral group(s). Plasma samples were harvested with K2EDTA as anticoagulant at 0.08, 0.25, 0.5, 1, 2, 4, 8, 12 and 24 hours for the IV group and at 0.25, 0.5, 1, 2, 4, 6, 8, 12 and 24 hours for the PO group, and analyzed by fit for purpose LC-MS/MS method. Non-compartmental analysis module in Phoenix WinNonlin® (Version 8.0) was used to assess the pharmacokinetic parameters. Maximum concentration (Cmax) were taken from the observed values.

Structures are written as SMILES. pIC50: −log10 of the molar value. Like-named read-outs stand apart in the source and are kept apart here.

For `CNc1cc(Nc2cc(F)cc3c2OCCO3)nc2c(NC(=O)N[C@@H]3C[C@@H]3F)cnn12` [Compound 5, 1-(5-((7-fluoro-2,3-dihydrobenzo[b][1,4]dioxin-5-yl)amino)-7-(methylamino)pyrazolo[1,5-a]pyrimidin-3-yl)-3-((1R,2S)-2-fluorocyclopropyl)urea], the “metabolic stability compared to the corresponding amide compound” value in “Hepatocyte stability” (hepatocytes, statement in words) is “unexpected high metabolic stability”. Further, in the data set on IFN-a/Jak1 Tyk2, the pIC50 is more than 6.00.

For `CNc1cc(Nc2cc(F)cc3c2OCCO3)nc2c(NC(=O)N[C@@H]3C[C@H]3F)cnn12` [Compound 187, 1-(5-((7-fluoro-2,3-dihydrobenzo[b][1,4]dioxin-5-yl)amino)-7-(methylamino)pyrazolo[1,5-a]pyrimidin-3-yl)-3-((1R,2R)-2-fluorocyclopropyl)urea], the pIC50 in the data set on IFN-a/Jak1 Tyk2 is 5.00 to 6.00.

In turn, `CNc1cc(Nc2cccc3c2OCCO3)nc2c(NC(=O)NC3CC3)cnn12` [drawing 277] came in with a half-life in data set [1] of more than 2 h.

Take `CNc1cc(Nc2cccc3c2OCCO3)nc2c(C(=O)NC3CC3)cnn12` [drawing 278, reference compound]: in data set [1], the half-life is 0.317 h.

Regarding `CNc1cc(Nc2cc(F)cc3c2OCCO3)nc2c(NC(=O)N[C@@H]3C[C@@H]3F)cnn12` [drawing 279], in data set [1], the half-life is more than 2 h.

As to `CNc1cc(Nc2cc(F)cc3c2OCCO3)nc2c(C(=O)N[C@@H]3C[C@@H]3F)cnn12` [drawing 280, reference compound], in data set [1], the half-life was 1 h.

Regarding `CNc1cc(Nc2cccc3c2OCCO3)nc2c(NC(=O)NC3CC(O)C3)cnn12` (stereo not drawn) [drawing 281], the half-life in data set [1] is more than 2 h.

As to `CNC(=O)Nc1cnn2c(NC)cc(Nc3cc(F)cc4c3OCCO4)nc12` [drawing 283], in data set [1], the half-life is more than 2 h.

Consider `CNc1cc(Nc2cccc3c2OCCO3)nc2c(NC(=O)N[C@@H]3C[C@@H]3F)cnn12` [drawing 285], for which, in data set [2] (rat, plasma, read-out: Cmax), the Cmax was found to be 1690 ng/mL.

Regarding `CNc1cc(Nc2cccc3c2OCCO3)nc2c(NC(=O)NC3CCC3)cnn12` [drawing 287], the Cmax in data set [2] (rat plasma) was 5,000 ng/mL.

For the compound `CNc1cc(Nc2cccc3c2OCCO3)nc2c(NC(=O)NC3CCC3)cnn12` [drawing 289], the Cmax in data set [2] (rat plasma) was 1,800 ng/mL.

`CNc1cc(Nc2cccc3c2OCCO3)nc2c(C(=O)NC3CC3)cnn12` [drawing 290, reference compound]: the Cmax in data set [2] (rat, plasma, read-out: Cmax) came to 400 ng/mL.

Consider `CNC(=O)Nc1cnn2c(NC)cc(Nc3cc(C)cc(C)c3)nc12` [drawing 291], for which the Cmax in data set [2] (rat, plasma, read-out: Cmax) amounted to 915 ng/mL.

`CNc1cc(Nc2cc(F)cc3c2OCCO3)nc2c(NC(=O)N[C@@H]3C[C@@H]3F)cnn12` [drawing 293]: the half-life at 1 μM in “Hepatocyte stability” was more than 6 h.

`CNc1cc(Nc2cc(F)cc3c2OCCO3)nc2c(C(=O)N[C@@H]3C[C@@H]3F)cnn12` [drawing 294, reference compound] registered a half-life at 1 μM in the data set “Hepatocyte stability” of less than 1.67 h.

In data set [1], `CNc1cc(Nc2cccc3c2OCCO3)nc2c(C(=O)NC3CC(O)C3)cnn12` (stereo not drawn) [reference compound] came in with a half-life of 0.3 h.

As to `CNC(=O)c1cnn2c(NC)cc(Nc3cc(F)cc4c3OCCO4)nc12` [reference compound], the half-life in data set [1] was less than 0.833 h.

As for `CNc1cc(Nc2cccc3c2OCCO3)nc2c(C(=O)N[C@@H]3C[C@@H]3F)cnn12` [reference compound], the Cmax in data set [2] (rat, plasma, read-out: Cmax) came to 400 ng/mL.

Consider `CNc1cc(Nc2cccc3c2OCCO3)nc2c(C(=O)NC3CCC3)cnn12` [reference compound], for which the Cmax in data set [2] (rat, plasma, read-out: Cmax) came to 1900 ng/mL.

As to `CNC(=O)c1cnn2c(NC)cc(Nc3cc(C)cc(C)c3)nc12` [reference compound], the Cmax in data set [2] (rat, plasma, read-out: Cmax) turned out to be 200 ng/mL.

The term pIC50 denotes −log10 of the IC50, conventionally taken in molar units. The low end stands for a high IC50, the high end for a low IC50. The half-life is how long it takes for the measured level to halve. Read a high half-life as slow decline. In general, Cmax refers to the highest concentration seen after dosing.
